# Ends that are not written are not given here.
# What was measured:
# [1] = tested on: GPRALS2; test: iCa^2+ release (Fluo-4 NW) in stable CHO cells expressing GPRALS2; type: cell-based, Anopheles coluzzii; details: 1 nM to 1 μM (BLAST-2 0.5 μM to 0.005 μM)
# Method: (§1) The amplified insect receptors included the initiation and termination codons but were not cloned in frame with vector tag proteins. The recombinant constructs were used to transfect mammalian CHO cells that had been maintained in complete Dulbecco’s modified Eagle’s medium (DMEM, Sigma, Spain) containing 4.5 g/L glucose, 110 mg/L sodium pyruvate and L-glutamine and supplemented with 10% sterile foetal bovine serum and 0.1% penicillin: streptomycin antibiotic mix (10.000 U: 10 mg/ml, Sigma) and 250μg/ml sterile filtered amphotericin B solution (1:100 dilution, Sigma, Spain). One day prior to transfection, 2–3 x10^5 cells were seeded into 6 well plates (Sarstedt, Portugal) and transfected using Fugene 6 reagent (1: 6 DNA: Fugene, Roche, Germany) according to the manufacturer’s protocol. The efficiency and success of cell transfection was estimated by performing a simultaneous transfection with a plasmid encoding a fluorescent protein. 72 h after incubation, transformed cells were selected by supplementing medium with 800μg/ml of the antibiotic Geneticin (G418 sulphate, GibcoBRL, USA) and cell recovery was monitored daily and the medium changed until no cell death was observed. Establishment of AST-AR CHO stable cell lines were confirmed by PCR using receptor specific primers.
# (§2) GPRALS1 and GPRALS2 stable CHO cell lines were stimulated with Ano_AST-A1 and Ano_AST-A2 peptides, the B. germanica BLAST-2 peptide and rat GAL and sea bass KISS peptides and iCa^2+ release and cAMP production were measured.
# (§3) For iCa^2+ release (Relative Fluorescent Units, RFU) a Ca^2+ sensitive fluorescent dye Fluo-4 NW (Molecular Probes, Invitrogen) was used. Approximately 50,000 cells were assayed per well and the variation in fluorescence after addition of increasing peptide concentrations (1 nM to 1 μM, diluted in the assay buffer) was measured every 5s over a total of 2 min and fluorescence was excited using a 485/20 nm filter and captured with a 528/20 nm filter in a Biotek Synergy 4 plate reader (Biotek, USA). Background RFU of transfected cells was measured prior to peptide stimulation. The controls consisted of transfected cells exposed to carbachol (100 nM; Sigma, Spain) and non-transfected CHO cells stimulated with 1 μM of each peptide (negative control).
# (§4) Quantitative expression data is presented as mean ± SEM of cDNA from 3 independent experiments analysed in duplicate. Significant changes in transcript expression were assessed using a nonparametric Mann-Whitney two-tailed test. Receptor activation is presented as the mean ± SEM of three independent experiments carried out in triplicate and statistical significance was assessed using a Kruskal-Wallis test with Dunn’s Multiple Comparison Test. […]
# [2] = tested on: GPRALS2; test: cAMP production (competitive immunoassay) in stable CHO cells expressing GPRALS2; type: cell-based, Anopheles coluzzii; details: 1 x PBS/1 mM IBMX, 30 min at 37°C, cryptate labelled anti-cAMP antibody, triplicate on three occasions
# Method: (§5) The amplified insect receptors included the initiation and termination codons but were not cloned in frame with vector tag proteins. The recombinant constructs were used to transfect mammalian CHO cells that had been maintained in complete Dulbecco’s modified Eagle’s medium (DMEM, Sigma, Spain) containing 4.5 g/L glucose, 110 mg/L sodium pyruvate and L-glutamine and supplemented with 10% sterile foetal bovine serum and 0.1% penicillin: streptomycin antibiotic mix (10.000 U: 10 mg/ml, Sigma) and 250μg/ml sterile filtered amphotericin B solution (1:100 dilution, Sigma, Spain). […] 72 h after incubation, transformed cells were selected by supplementing medium with 800μg/ml of the antibiotic Geneticin (G418 sulphate, GibcoBRL, USA) and cell recovery was monitored daily and the medium changed until no cell death was observed. […]
# as §2
# (§6) The amount of cAMP produced was determined using a competitive immunoassay with a cryptate labelled anti-cAMP antibody (Cisbio, France) and following the manufactures protocol. […]
# (§7) Quantitative expression data is presented as mean ± SEM of cDNA from 3 independent experiments analysed in duplicate. […]
# [3] = tested on: DAR-2; details: D. melanogaster DAR-2; cited from earlier work
# [4] = tested on: GPRALS1; test: iCa^2+ release (Fluo-4 NW) in stable CHO cells expressing GPRALS1; type: cell-based, Anopheles coluzzii; details: 1 nM to 1 μM (BLAST-2 0.5 μM to 0.005 μM)
# Method: as §1, §2, §3, §4
# [5] = tested on: GPRALS1; test: cAMP production (competitive immunoassay) in stable CHO cells expressing GPRALS1; type: cell-based, Anopheles coluzzii; details: 1 x PBS/1 mM IBMX, 30 min at 37°C, cryptate labelled anti-cAMP antibody, triplicate on three occasions
# Method: as §5, §2, §6, §7
# [6] = tested on: DAR-1; details: D. melanogaster DAR-1; cited from earlier work
# [7] = tested on: galanin receptors (GALR); details: vertebrates; cited from earlier work
# Text: AST-A peptides activate specific G-protein coupled receptors (GPCRs), the insect allatostatin-A receptors (AST-ARs) that are considered orthologues of galanin receptors (GALR) in vertebrates. In vertebrates, GALRs have a close evolutionary relationship with kisspeptin receptors (KISSR) and are activated by galanin (GAL) and spexin (SPX), peptides that are unrelated to insect AST-As. AST-A peptide function is relatively well studied but the receptors have only been isolated in a few insect species and their evolution and function is unresolved. In t ...
Substance,"receptor activation, iCa^2+ signalling [1]","receptor activation, iCa^2+ signalling [4]",GALR activation [7],also measured
"DRLYSFGL-NH2 [BLAST-2, German cockroach Blattella germanica BLAST-2 peptide (DRLYSFGL-NH2)]",activated,activated,–,intracellular cAMP [2]: None of the insect peptides induced increased intracellular cAMP; iCa^2+ mobilization [3]: stimulates iCa^2+ mobilization; intracellular cAMP [5]: None of the insect peptides induced increased intracellular cAMP; iCa^2+ mobilization [6]: stimulates iCa^2+ mobilization
"FNFNPFGLRF-NH2 [KISS 2–10, vertebrate KISS peptide, sea bass KISS 2–10 ([…]-NH2)]",failed to activate,failed to activate,–,–
"YNLNSFGLRY-NH2 [KISS 1–10, vertebrate KISS peptide, sea bass KISS 1–10 ([…]-NH2)]",failed to activate,failed to activate,–,–
"galanin (GAL): galanin (GAL), peptide activating vertebrate galanin receptors",–,–,activated,–
"rat 1–29 GAL: 1–29 rat galanin (Sigma-Aldrich, Spain) (GWTLNSAGYLLGPHAIDNHRSFSDKHGLT; ends and bridges not checked; UniProt P10683 33-61, looked up)",failed to activate,failed to activate,–,–
"spexin (SPX): spexin (SPX), peptide activating vertebrate galanin receptors",–,–,activated,–

# Reference: article PMC4489612, “Unravelling the Evolution of the Allatostatin-Type A, KISS and Galanin Peptide-Receptor Gene Families in Bilaterians: Insights from Anopheles Mosquitoes” (PLoS ONE, 2015)
